Reference: ChEMBL document CHEMBL5528015, “Structure-based design of SARS-CoV-2 papain-like protease inhibitors” (Eur J Med Chem, 2024)
pIC50: −log10 of the molar value. Activity calls are given as the source filed them. No cut-off for these calls is given here.

Assays:
[1] = target: Replicase polyprotein 1ab (Severe acute respiratory syndrome coronavirus 2, UniProt P0DTD1); assay: biochemical
[2] = target: Replicase polyprotein 1ab (Severe acute respiratory syndrome coronavirus 2) (UniProt P0DTD1); conditions: BetaCoV/Wuhan/WIV04/2019, dose 40.0 µM, time 30.0 min
[3] = mouse, microsomes, 1 h, 1 µM
[4] = Metabolic stability in mouse liver microsomes assessed as intrinsic clearance at 1 uM measured upto 60 mins in presence of NADPH regenerating system by LC-MS/MS analysis; type: ADME, Microsome; conditions: read-out: CLH
[5] = Cytotoxicity against African green monkey Vero E6 cells incubated for 48 hrs by neutral red uptake assay; type: toxicity, cell-based, Vero C1008; conditions: chlorocebus sabaeus
in vitro = conditions: mouse, liver microsomes

SMILES	pIC50 [1]	CC50 at 48 h [5]	other results
C[C@H](c1cccc(-c2cccs2)c1)N(C)Cc1ccc(O)cc1O	5.30	–	–
Cc1ccc(OCCN)cc1C(=O)N[C@H](C)c1cccc(-c2ccc(F)cc2F)c1	5.81	–	–
COCCn1cc(-c2cccc([C@@H](C)NC(=O)c3cc(OCCN)ccc3C)c2)cn1	5.82	–	–
Cc1ccc(OCCN)cc1C(=O)N[C@H](C)c1cccc(-c2ccoc2)c1	–	103 µM	Activity [2]: Active; t1/2 [3]: 0.897 h; microsomal CLint at 1 µM [4]: 25.7 µL/min/mg
C[C@H](c1cccc(-c2ccc(CN3CCCC3)s2)c1)N(C)Cc1cccc2[nH]ccc12	5.47	–	–
C[C@H](c1cccc2ccccc12)N(C)Cc1ccc(O)cc1O	–	31.5 µM	Activity [2]: Active
C[C@H](c1cccc2ccccc12)N(C)Cc1c[nH]c2ccc(F)cc12	–	32.5 µM	–
Cc1ccc(OCCN)cc1C(=O)N[C@H](C)c1cccc(-c2ccc(C#N)s2)c1	–	15 µM	–
C[C@H](c1cccc2ccccc12)N(C)Cc1ccc2cn[nH]c2c1	–	28.3 µM	–
Cc1ccc(OCCN)cc1C(=O)N[C@H](C)c1cccc(-c2c[nH]nc2C)c1	5.71	–	–
Cc1ccc(OCCN)cc1C(=O)N[C@H](C)c1cccc(-c2ccc3c(c2)OCCO3)c1	6.01	–	–
Cc1ccc(O)cc1CN(C)[C@H](C)c1cccc2ccccc12	–	14.4 µM	microsomal CLint at 1 µM [4]: 2490 µL/min/mg
Cc1ccc(OCCN)cc1C(=O)N[C@H](C)c1cccc(-c2cn[nH]c2)c1	5.83	–	–
COc1cc(O)ccc1CN(C)[C@@H](C)c1cccc(-c2ccc(CN3CCCC3)s2)c1	5.52	–	–
Cc1ccc(OCCN)cc1C(=O)N[C@H](C)c1cccc(-c2ccc(CNC3CC3)s2)c1	6.03	–	–
C[C@H](c1cccc2ccccc12)N(C)Cc1c[nH]c2cc(F)ccc12	–	31.8 µM	–
Cc1ccc(OCCN)cc1C(=O)N[C@H](C)c1cccc(-c2cccs2)c1	–	15.2 µM	t1/2 [3]: > 2.42 h; microsomal CLint at 1 µM [4]: < 9.6 µL/min/mg
Cc1ccc(OCCN)cc1C(=O)N[C@H](C)c1cccc(-c2ccc(O)cc2)c1	–	45.2 µM	t1/2 [3]: 0.962 h; microsomal CLint at 1 µM [4]: 24 µL/min/mg
C[C@H](c1cccc2ccccc12)N(C)Cc1c[nH]c2ccccc12	–	24.7 µM	–
Cc1ccc(OCCN)cc1C(=O)N[C@H](C)c1cccc(-c2ccccc2O)c1	5.65	–	–
Cc1ccc(OCCN)cc1C(=O)N[C@H](C)c1cccc(-c2ccc(C#N)cc2)c1	6.05	–	–

SMILES	pIC50 [1]	CC50 at 48 h [5]	other results
Cc1ccc(OCCN)cc1C(=O)N[C@H](C)c1cccc(-c2cnn(Cc3ccccc3)c2)c1	5.99	–	–
C[C@H](c1cccc2ccccc12)N(C)Cc1ccc2[nH]ncc2c1	–	35.5 µM	–
Cc1ccc(OCCN)cc1C(=O)N[C@H](C)c1cccc(-c2cnn(C)c2)c1	6.02	–	–
Cc1ccc(OCCN)cc1C(=O)N[C@H](C)c1cccc(-c2ccn(C)c2C)c1	5.47	–	–
Cc1ccc(OCCN)cc1C(=O)N[C@H](C)c1cccc(-c2ccn[nH]2)c1	5.94	–	–
Cc1ccc(NC2CNC2)cc1CN(C)[C@H](C)c1cccc2ccccc12	–	13.7 µM	t1/2 [3]: 1.673 h; microsomal CLint at 1 µM [4]: 13.8 µL/min/mg
Cc1ccc(OCCN)cc1C(=O)N[C@H](C)c1cccc2ccccc12	–	–	t1/2 [3]: > 2.42 h; microsomal CLint at 1 µM [4]: < 9.6 µL/min/mg
C[C@H](c1cccc(-c2ccc(CN3CCCC3)s2)c1)N(C)Cc1ccc2[nH]ncc2c1	5.15	–	–
C[C@H](c1cccc(-c2cccs2)c1)N(C)Cc1c[nH]c2cc(F)ccc12	5.63	–	–
Cc1ccc(OCCN)cc1C(=O)N[C@H](C)c1cccc(-c2ccnn2C)c1	5.56	–	–
C[C@H](c1cccc(-c2cccs2)c1)N(C)Cc1c[nH]c2ccc(F)cc12	5.58	–	–
Cc1ccc(OCCN)cc1C(=O)N[C@H](C)c1cccc(-c2ccc(F)cc2)c1	5.91	–	–
Cc1ccc(OCCN)cc1C(=O)N[C@H](C)c1cccc(-c2ccc3c(c2)CCO3)c1	5.97	–	–
Cc1ccc(OCCN)cc1C(=O)N[C@H](C)c1cccc(-c2ccsc2)c1	–	> 30 µM	t1/2 [3]: 1.958 h; microsomal CLint at 1 µM [4]: 11.8 µL/min/mg
C[C@H](c1cccc2ccccc12)N(C)Cc1ccc(O)cc1	–	23.7 µM	half-life at 1 h, 1 µM (in vitro): 1.8 min; microsomal CLint at 1 µM [4]: 779 µL/min/mg
Cc1ccc(OCCN)cc1C(=O)N[C@H](C)c1cccc(-c2c(C)noc2C)c1	5.83	–	–
C[C@H](c1cccc(-c2cccs2)c1)N(C)Cc1ccc2cn[nH]c2c1	5.63	–	–
Cc1ccc(OCCN)cc1C(=O)N[C@H](C)c1cccc(-c2cnn(C(F)F)c2)c1	5.94	–	–
COc1cc([N+](=O)[O-])ccc1CN(C)[C@H](C)c1cccc2ccccc12	–	> 100 µM	Activity [2]: Active
Cc1ccc(OCCN)cc1C(=O)N[C@H](C)c1cccc(-c2cnc(N(C)C)nc2)c1	< 4.70	–	–
